From patent publication US12545685B2 (Daiichi Sankyo Company, Limited, priority 2011, dated 2026)
pIC50: −log10 of the molar value.

Key:
[1] = molecular target: T1, Mdm2/p53 binding (GST-Mdm2 / His-p53) (Homo sapiens, UniProt Q00987, L33E); test: Mdm2/p53 binding assay (HTRF, His-p53 and GST-Mdm2); conditions: His-p53 (aa 1-132) and GST-Mdm2 (aa 25-108, L33E) 6.25 nM each; 25°C, 1 hour; values given as ranges
T1 construct: Mdm2 partial protein having Mdm2 amino acids at positions 25 to 108
Outline: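 His-p53 (aa 1–132) and GST-Mdm2 (aa 25–108, L33E) were prepared at 6.25 nM each in the protein dilution (20 mM HEPES pH 7.4, 150 mM NaCl, 0.1% BSA). Compound in 10% DMSO buffer and XL665 anti-His/Eu anti-GST antibodies (KF buffer) were added, with 1 h at 25 °C. The 665/620 nm TR-FRET ratio gave T/C and a sigmoid-fitted IC50.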

[2] = test system: human lung cancer-derived cell line NCI-H460 having wild-type p53; test: Cell growth inhibition assay (MTT); type: cell-based; conditions: 72 h, NCI-H460 cells, 3 days culture, values given as ranges, read-out: 50% growth inhibition concentration (GI50 value)
Procedure: A cell growth inhibition assay was conducted using a human lung cancer-derived cell line NCI-H460 having wild-type p53.
NCI-H460 cells were suspended in a medium (RPMI1640 medium containing 10% fetal bovine serum) and the suspension was added in an amount of 500 cells/150 μl/well to a 96-well plate. A test compound was dissolved in DMSO and this solution was diluted with medium to prepare a sample solution (DMSO concentration: 1% or lower). On the next day, medium nonsupplemented with the test compound, or the sample solution, was added in an amount of 50 μl/well. Cells were then cultured at 37° ° C. for 3 days in a 5% CO2 atmosphere.
An MTT assay was conducted immediately after the nonsupplemented medium or the sample solution was added. Another MTT assay was conducted after culturing the cells for 3 days. The MIT assays were conducted as shown below.
A 5 mg/ml MTT (3-(4,5-dimethylthiazol-2-yl)-2,5-diphenyltetrazolium bromide, Sigma-Aldrich Co., M-2128) solution was prepared using a phosphate buffer solution (Dulbecco's Phosphate-buffered Saline). This MIT solution was added in an amount of 20 μl/well. Then the plate was cultured at 37° ° C. for 4 hours in a 5% CO2 atmosphere. The plate was centrifuged at 1200 rpm for 5 minutes and then the culture supernatant was removed by aspiration using a dispenser. DMSO was added in an amount of 150 μl/well to dissolve generated formazan. The plate was stirred using a plate mixer for uniform color development from each well. The absorbance of each well was measured at OD 540 nm and at a reference OD (660 nm) using a plate reader (SpectraMax PLUS384, Molecular Devices, CA, USA).
The OD value measured on the day of adding the sample solution was defined as S. The OD value measured three days after addition of the sample solution was defined as T. The OD value measured three days after addition of the DMSO dilution was defined as C. T/C (%) was determined at each concentration according to the formula shown below in order to prepare a dose response curve, from which 50% growth inhibition concentration (GI50 value) was calculated.

T1 sequence (Q00987 25-108 L33E): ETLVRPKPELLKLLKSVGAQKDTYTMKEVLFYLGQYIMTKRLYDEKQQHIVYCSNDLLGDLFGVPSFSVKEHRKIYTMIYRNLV

SMILES	pIC50 [1]	GI50 [2] [µM]
CC1(C)CCC2(CC1)N[C@@H](C(=O)N[C@H]1CC[C@H](C(N)=O)CC1)[C@H](c1ccnc(Cl)c1F)[C@]21C(=O)Nc2cc(Cl)ccc21 [Example 67, (3′R, 4′S,5′R)—N-(trans-4-carbamoylcyclohexyl)-6″-chloro-4′-(2-chloro-3-fluoropyridin-4-yl)-4,4-dimethyl-2′-oxo-1″,2″-dihydrodispiro[cyclohexane-1,2′-pyrrolidine-3′,3″-indole]-5′-carboxamide]	7.30 to 9.00	0.1 to 0.5
CC1(C)CCC2(CC1)N[C@@H](C(=O)N[C@@H]1CC[C@@H](CO)OC1)[C@H](c1ccnc(Cl)c1F)[C@]21C(=O)Nc2cc(Cl)c(F)cc21 [Example 23, (3′R, 4′S,5′R)-6″-chloro-4′-(2-chloro-3-fluoropyridin-4-yl)-5″-fluoro-N-[(3R,6S)-6-(hydroxymethyl)tetrahydro-2H-pyran-3-yl]-4,4-dimethyl-2″-oxo-1″,2″-dihydrodispiro[cyclohexane-1,2′-pyrrolidine-3′,3″-indole]-5′-carboxamide]	7.30 to 9.00	0.1 to 0.5
CC1(C)CCC2(CC1)N[C@@H](C(=O)N[C@@H]1CC[C@@H](C(N)=O)OC1)[C@H](c1cccc(Cl)c1F)[C@]21C(=O)Nc2nc(Cl)ccc21 [Example 179, (3′R, 4′S,5′R)—N-[(3R,6S)-6-carbamoyltetrahydro-2H-pyran-3-yl]-6″-chloro-4′-(3-chloro-2-fluorophenyl)-4,4-dimethyl-2″-oxo-1″,2″-dihydrodispiro[cyclohexane-1,2′-pyrrolidine-3′,3″-pyrrolo[2,3-b]pyridine]-5′-carboxamide]	7.30 to 9.00	1 to 5
CNC(=O)[C@@H]1CC[C@@H](NC(=O)[C@@H]2NC3(CCC(C)(C)CC3)[C@@]3(C(=O)Nc4cc(Cl)ccc43)[C@H]2c2ccnc(Cl)c2F)CO1 [Example 99, (3′R, 4′S,5′R)-6″-chloro-4′-(2-chloro-3-fluoropyridin-4-yl)-N-[(3R,6S)-6-(methylcarbamoyl)tetrahydro-2H-pyran-3-yl]-4,4-dimethyl-2″-oxo-1″,2″-dihydrodispiro[cyclohexane-1,2′-pyrrolidine-3′,3″-indole]-5′-carboxamide]	7.30 to 9.00	< 0.1
CCN(CC)C(=O)[C@@H]1CC[C@@H](NC(=O)[C@@H]2NC3(CCC(C)(C)CC3)[C@@]3(C(=O)Nc4nc(Cl)ccc43)[C@H]2c2ccnc(Cl)c2F)CO1 [Example 117, (3′R, 4′S,5′R)-6″-chloro-4′-(2-chloro-3-fluoropyridin-4-yl)-N-[(3R,6S)-6-(diethylcarbamoyl)tetrahydro-2H-pyran-3-yl]-4,4-dimethyl-2″-oxo-1″,2″-dihydrodispiro[cyclohexane-1,2′-pyrrolidine-3′,3″-pyrrolo[2,3-b]pyridine]-5′-carboxamide]	7.30 to 9.00	0.1 to 0.5
CC1(C)CCC2(CC1)N[C@@H](C(=O)N[C@H]1CC[C@H](O)CC1)[C@H](c1cccc(Cl)c1F)[C@]21C(=O)Nc2cc(Cl)ccc21 (relative stereo) [Example 1, (3′R, 4′S,5′R)-6″-chloro-4′-(3-chloro-2-fluorophenyl)-N-(trans-4-hydroxycyclohexyl)-4,4-dimethyl-2″-oxo-1″,2″-dihydrodispiro[cyclohexane-1,2′-pyrrolidine-3′,3″-indole]-5′-carboxamide]	7.00 to 7.30	0.1 to 0.5
CC1(C)CCC2(CC1)N[C@@H](C(=O)N[C@H]1CC[C@H](O)CC1)[C@H](c1ccnc(Cl)c1F)[C@]21C(=O)Nc2cc(Cl)ccc21 (relative stereo) [Example 16, (3′R, 4′S,5′R)-6″-chloro-4′-(2-chloro-3-fluoropyridin-4-yl)-N-(trans-4-hydroxycyclohexyl)-4,4-dimethyl-2″-oxo-1″,2″-dihydrodispiro[cyclohexane-1,2′-pyrrolidine-3′,3″-indole]-5′-carboxamide]	7.30 to 9.00	0.1 to 0.5
CC(O)[C@@H]1CC[C@@H](NC(=O)[C@@H]2NC3(CCC(C)(C)CC3)[C@@]3(C(=O)Nc4cc(Cl)ccc43)[C@H]2c2ccnc(Cl)c2F)CO1 (single isomer, unassigned) [Example 93]	7.00 to 7.30	0.1 to 0.5

Second part, the compound after the results:

pIC50 [1]	GI50 [2] [µM]	SMILES
7.30 to 9.00	0.1 to 0.5	CC1(C)CCC2(CC1)N[C@@H](C(=O)N[C@@H]1CC[C@@H](CO)OC1)[C@H](c1cccc(Cl)c1F)[C@]21C(=O)Nc2cc(Cl)ccc21 [Example 8, (3′R, 4′S,5′R)-6″-chloro-4′-(3-chloro-2-fluorophenyl)-N-[(3R,6S)-6-(hydroxymethyl)tetrahydro-2H-pyran-3-yl]-4,4-dimethyl-2″-oxo-1″,2″-dihydrodispiro[cyclohexane-1,2′-pyrrolidine-3′,3″-indole]-5′-carboxamide]
7.30 to 9.00	< 0.1	C[C@@H](O)[C@@H]1CC[C@@H](NC(=O)[C@@H]2NC3(CCC(C)(C)CC3)[C@@]3(C(=O)Nc4cc(Cl)ccc43)[C@H]2c2cccc(Cl)c2F)CO1 [Example 182, (3′R, 4′S,5′R)-6″-chloro-4′-(3-chloro-2-fluorophenyl)-N-{(3S,6S)-6-[(1R)-1-hydroxyethyl]tetrahydro-2H-pyran-3-yl}-4,4-dimethyl-2′-oxo-1″,2″-dihydrodispiro[cyclohexane-1,2′-pyrrolidine-3′,3″-indole]-5-carboxamide]
7.30 to 9.00	1 to 5	C[C@@H](O)[C@@H]1CC[C@@H](NC(=O)[C@@H]2NC3(CCC(C)(C)CC3)[C@@]3(C(=O)Nc4nc(Cl)ccc43)[C@H]2c2cccc(Cl)c2F)CO1 [Example 180, (3′R, 4′S,5′R)-6″-chloro-4′-(3-chloro-2-fluorophenyl)-N-{(3R,6S)-6-[(1R)-1-hydroxyethyl]tetrahydro-2H-pyran-3-yl}-4,4-dimethyl-2″-oxo-1″,2″-dihydrodispiro[cyclohexane-1,2′-pyrrolidine-3′,3″-pyrrolo[2,3-b]pyridine]-5′-carboxamide]
7.00 to 7.30	0.5 to 1	CC1(C)CCC2(CC1)N[C@@H](C(=O)N[C@H]1CC[C@H](c3nnco3)CC1)[C@H](c1ccnc(Cl)c1)[C@]21C(=O)Nc2cc(Cl)ccc21 [Example 54, (3′R, 4′R, 5′R)-6″-chloro-4′-(2-chloropyridin-4-yl)-4,4-dimethyl-N-[trans-4-(1,3,4-oxadiazol-2-yl)cyclohexyl]-2″-oxo-1″,2″-dihydrodispiro[cyclohexane-1,2′-pyrrolidine-3′,3″-indole]-5′-carboxamide]
7.30 to 9.00	1 to 5	CC1(C)CCC2(CC1)N[C@@H](C(=O)N[C@@H]1CCC(C)(C(=O)O)OC1)[C@H](c1ccnc(Cl)c1F)[C@]21C(=O)Nc2cc(Cl)ccc21 (stereo partly drawn) [Example 186, (5R)-5-({[(3′R, 4′S,5′R)-6″-chloro-4′-(2-chloro-3-fluoropyridin-4-yl)-4,4-dimethyl-2″-oxo-1″,2″-dihydrodispiro[cyclohexane-1,2′-pyrrolidine-3′,3″-indole]-5′-yl]carbonyl}amino)-2-methyltetrahydro-2H-pyran-2-carboxylic acid]
7.00 to 7.30	0.1 to 0.5	CC1(C)CCC2(CC1)N[C@@H](C(=O)N[C@H]1CC[C@H](c3n[nH]c(=O)o3)CC1)[C@H](c1ccnc(Cl)c1)[C@]21C(=O)Nc2cc(Cl)ccc21 [Example 51, (3′R, 4′R, 5′R)-6″-chloro-4′=(2-chloropyridin-4-yl)-4,4-dimethyl-2″-oxo-N-[trans-4-(5-oxo-4,5-dihydro-1,3,4-oxadiazol-2-yl)cyclohexyl]-1″,2″-dihydrodispiro[cyclohexane-1,2′-pyrrolidine-3′,3″-indole]-5′-carboxamide]
7.00 to 7.30	0.1 to 0.5	CC1(C)CCC2(CC1)N[C@@H](C(=O)N[C@@H]1CC[C@@H](Cc3nnco3)OC1)[C@H](c1ccnc(Cl)c1F)[C@]21C(=O)Nc2cc(Cl)ccc21 [Example 161, (3′R, 4′S,5′R)-6″-chloro-4′-(2-chloro-3-fluoropyridin-4-yl)-4,4-dimethyl-N-[(3R,6S)-6-(1,3,4-oxadiazol-2-ylmethyl)tetrahydro-2H-pyran-3-yl]-2″-oxo-1″,2″-dihydrodispiro[cyclohexane-1,2′-pyrrolidine-3′,3″-indole]-5′-carboxamide]
